Experimental data reported in patent publication US20230026271A1, “Piperazine Compounds for Inhibiting CPS1” (Eisai R&D Management Co., Ltd., priority 2019, published 2023).

Experiments:
CPS1 [1] = target: T1, CPS1 (Homo sapiens, UniProt P31327); assay: ADP-Glo endpoint assay measuring the ATPase activity of CPS1; type: biochemical; details: geometric mean of a minimum of two values; 50 nM CPS1, 10 μM ATP, 0.2 mM NAG, 60 min at room temperature; read-out: ADPGlo IC50
T1 construct: The full length, human CPS1 gene was cloned into pFastBac HTA; His6 (from the pFastBac HTA vector); made in house; host or cells: SF21 insect cells (baculovirus, Bac-to-bac)
T1 sequence (P31327 39-1500): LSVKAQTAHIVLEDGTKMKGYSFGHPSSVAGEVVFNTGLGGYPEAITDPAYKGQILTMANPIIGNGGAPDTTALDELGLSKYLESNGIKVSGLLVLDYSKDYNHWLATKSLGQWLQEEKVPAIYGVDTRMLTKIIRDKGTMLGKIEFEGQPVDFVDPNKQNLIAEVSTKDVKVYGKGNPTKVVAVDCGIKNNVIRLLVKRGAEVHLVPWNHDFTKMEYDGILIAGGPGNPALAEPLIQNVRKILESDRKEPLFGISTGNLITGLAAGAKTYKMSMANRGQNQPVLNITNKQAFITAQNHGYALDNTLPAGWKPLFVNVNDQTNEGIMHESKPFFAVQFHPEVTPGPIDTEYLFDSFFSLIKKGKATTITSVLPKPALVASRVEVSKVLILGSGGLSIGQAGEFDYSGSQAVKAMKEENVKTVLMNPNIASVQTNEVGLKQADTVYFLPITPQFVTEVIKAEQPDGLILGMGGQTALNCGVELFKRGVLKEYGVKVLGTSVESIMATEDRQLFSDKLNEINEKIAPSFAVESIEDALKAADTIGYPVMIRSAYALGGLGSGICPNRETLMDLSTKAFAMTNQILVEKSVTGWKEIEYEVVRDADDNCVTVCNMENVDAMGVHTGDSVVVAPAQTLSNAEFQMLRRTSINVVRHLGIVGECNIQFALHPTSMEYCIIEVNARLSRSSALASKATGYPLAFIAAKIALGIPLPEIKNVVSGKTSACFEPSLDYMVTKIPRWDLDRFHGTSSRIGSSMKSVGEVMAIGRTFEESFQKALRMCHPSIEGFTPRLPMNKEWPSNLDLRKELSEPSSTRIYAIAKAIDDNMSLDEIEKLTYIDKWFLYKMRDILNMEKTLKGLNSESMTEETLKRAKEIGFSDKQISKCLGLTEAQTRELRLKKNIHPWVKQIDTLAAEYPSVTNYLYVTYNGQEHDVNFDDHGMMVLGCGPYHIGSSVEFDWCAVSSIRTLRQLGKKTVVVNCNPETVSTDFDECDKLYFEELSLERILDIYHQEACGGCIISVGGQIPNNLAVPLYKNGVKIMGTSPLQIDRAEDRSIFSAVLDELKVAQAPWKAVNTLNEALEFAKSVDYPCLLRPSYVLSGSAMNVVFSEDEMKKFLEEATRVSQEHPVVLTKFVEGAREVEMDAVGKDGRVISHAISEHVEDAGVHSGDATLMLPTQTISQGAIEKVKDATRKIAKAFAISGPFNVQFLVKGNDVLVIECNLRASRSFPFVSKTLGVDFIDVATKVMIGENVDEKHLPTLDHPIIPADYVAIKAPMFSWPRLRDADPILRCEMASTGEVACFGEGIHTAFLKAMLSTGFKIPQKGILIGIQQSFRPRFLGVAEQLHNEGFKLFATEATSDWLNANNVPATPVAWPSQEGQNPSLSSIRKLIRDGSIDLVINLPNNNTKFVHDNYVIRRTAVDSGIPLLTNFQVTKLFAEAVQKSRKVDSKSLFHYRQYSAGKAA
Method in brief: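 Full-length human His-tagged CPS1 from SF21 insect cells, 50 nM, preincubated 20 min with compound in pH 7.0 HEPES buffer containing KHCO3, (NH4)2SO3, MgCl2 and 0.2 mM NAG. Reaction started with 10 μM ATP, 60 min at room temperature; ADP formed detected by ADP-Glo luminescence.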

CPS1 [2] = target: T1, CPS1; assay: Assay 2 - Transcreener ADP FP assay (ADP formation from CPS1); type: biochemical; details: 10 nM CPS1, varying amounts of ATP, 60 min, fluorescence polarization
Method: CPS1 was expressed and purified from SF21 insect cells. The full length, human CPS1 gene was cloned into pFastBac HTA and baculovirus was generated using the Bac-to-bac expression system from Invitrogen. P3 virus was used to infect SF21 insect cells at a density of 1.5E6 cells/mL at an MOI of 2. Cells were harvested by centrifugation after 60 hrs and the cell pellet resuspended in lysis buffer (50 mM glycyl glycine pH 7.4, 20 mM KCl, 1 mM TCEP, 10% glycerol and 20 mM imidazole with Roche protease inhibitor tablet) before being lysed with 40 strokes of a Dounce homogenizer on ice. The insoluble fraction of the lysate was then cleared by centrifugation at 30,000 rpm for 30 min. 40 mL of supernatant was mixed with 2 mL of Ni NTA beads for 45 min at 4° C. in a 50 mL conical tube.
The beads were washed with 40 mL of wash buffer (50 mM glycyl glycine pH 7.4, 500 mM NaCl, 1 mM TCEP, 10% glycerol and 50 mM imidazole) by centrifugation and resuspension of the beads three times. Bound CPS1 protein was eluted in 6 mL of elution buffer (50 mM glycyl glycine pH 7.4, 500 mM NaCl, 1 mM TCEP, 10% glycerol and 250 mM imidazole) three times. Elution fractions were combined and concentrated using an Amicon Ultra centrifugation filter with a 10,000 molecular weight cut off. […]
ADP formation from CPS1 was measured in an endpoint assay using the Transcreener ADP FP kit from BellBbrook (Cat #3010-1K).

SMILES	IC50 (CPS1 [1])	IC50 (CPS1 [2])
COc1ccc(OC)c2[nH]c(C(=O)N3C[C@@H](C)N(C(=O)Cc4cc5ccccc5[nH]4)[C@H](C)C3)cc12 [Compound 91, 1-((2R,6R)-4-(4,7-dimethoxy-1H-indole-2-carbonyl)-2,6-dimethylpiperazin-1-yl)-2-(1H-indol-2-yl)ethanone]	> 66.7 µM	–
COc1ccc(C(=O)N2[C@H](C)CN(C(=O)c3cccc(OC)c3F)C[C@H]2C)c(F)c1 [Compound 92, ((2R,6R)-4-(2-fluoro-3-methoxybenzoyl)-2,6-dimethylpiperazin-1-yl)(2-fluoro-4-methoxyphenyl)methanone]	> 66.7 µM	–
COc1ccc(C(=O)N2C[C@@H](C)N(C(=O)c3ccc(NC(C)=O)cc3F)[C@H](C)C2)c(F)c1 [Compound 93, N-(3-fluoro-4-((2R,6R)-4-(2-fluoro-4-methoxybenzoyl)-2,6-dimethylpiperazine-1-carbonyl)phenyl)acetamide]	> 66.7 µM	–
COc1ccc(C(=O)N2C[C@@H](C)N(C(=O)c3ccc(OC)cc3Cl)[C@H](C)C2)c(F)c1 [Compound 94, ((3R,5R)-4-(2-chloro-4-methoxybenzoyl)-3,5-dimethylpiperazin-1-yl)(2-fluoro-4-methoxyphenyl)methanone]	> 66.7 µM	–
COc1ccc(C(=O)N2C[C@@H](C)N(C(=O)c3c(F)cc(OC)cc3F)[C@H](C)C2)c(F)c1 [Compound 95, ((3R,5R)-4-(2,6-difluoro-4-methoxybenzoyl)-3,5-dimethylpiperazin-1-yl)(2-fluoro-4-methoxyphenyl)methanone]	> 66.7 µM	–
COc1ccc(C(=O)N2[C@H](C)CN(C(=O)c3cc(OC)ccc3F)C[C@H]2C)c(F)c1 [Compound 96, ((3R,5R)-4-(2-fluoro-4-methoxybenzoyl)-3,5-dimethylpiperazin-1-yl)(2-fluoro-5-methoxyphenyl)methanone]	> 66.7 µM	–
COc1ccc(C(=O)N2[C@@H](C)CN(C(=O)c3cc(OC)ccc3F)C[C@@H]2C)c(F)c1 [Compound 97, ((3S,5S)-4-(2-fluoro-4-methoxybenzoyl)-3,5-dimethylpiperazin-1-yl)(2-fluoro-5-methoxyphenyl)methanone]	> 66.7 µM	–
COc1ccc(C(=O)N2[C@H](C)CN(C(=O)c3c[nH]c4ccc(O)cc34)C[C@H]2C)c(F)c1 [Compound 98, ((3R,5R)-4-(2-fluoro-4-methoxybenzoyl)-3,5-dimethylpiperazin-1-yl)(5-hydroxy-1H-indol-3-yl)methanone]	> 66.7 µM	–
COc1ccc(C(=O)N2C[C@@H](C)N(C(=O)c3ccc4ccn(C)c4c3)[C@H](C)C2)c(F)c1 [Compound 99, ((3R,5R)-3,5-dimethyl-4-(1-methyl-1H-indole-6-carbonyl)piperazin-1-yl)(2-fluoro-4-methoxyphenyl)methanone]	> 66.7 µM	–
COc1ccc(C(=O)N2[C@H](C)CN(C(=O)c3ccc(OC)cc3OC)C[C@H]2C)c(F)c1 [Compound 100, ((2R,6R)-4-(2,4-dimethoxybenzoyl)-2,6-dimethylpiperazin-1-yl)(2-fluoro-4-methoxyphenyl)methanone]	> 66.7 µM	–
COc1ccc(C(=O)N2[C@H](C)CN(C(=O)c3cc(OC)c(OC)cc3F)C[C@H]2C)c(F)c1 [Compound 101, ((2R,6R)-4-(2-fluoro-4,5-dimethoxybenzoyl)-2,6-dimethylpiperazin-1-yl)(2-fluoro-4-methoxyphenyl)methanone]	> 66.7 µM	–
COc1ccc(C(=O)N2[C@H](C)CN(C(=O)c3ccc(S(C)(=O)=O)cc3F)C[C@H]2C)c(F)c1 [Compound 102, ((2R,6R)-4-(2-fluoro-4-(methylsulfonyl)benzoyl)-2,6-dimethylpiperazin-1-yl)(2-fluoro-4-methoxyphenyl)methanone]	> 66.7 µM	–
COc1ccc(C(=O)N2[C@H](C)CN(C(=O)c3cc(NC(C)=O)ccc3F)C[C@H]2C)c(F)c1 [Compound 103, N-(4-fluoro-3-((3R,5R)-4-(2-fluoro-4-methoxybenzoyl)-3,5-dimethylpiperazine-1-carbonyl)phenyl)acetamide]	> 66.7 µM	–
COc1ccc(C(=O)N2C[C@@H](C)N(C(=O)c3c[nH]c4ccc(O)cc34)[C@H](C)C2)c(F)c1 [Compound 104, ((2R,6R)-4-(2-fluoro-4-methoxybenzoyl)-2,6-dimethylpiperazin-1-yl)(5-hydroxy-1H-indol-3-yl)methanone]	> 66.7 µM	–
COc1ccc(C(=O)N2C[C@@H](C)N(C(=O)c3ccc(OC)cc3)[C@H](C)C2)cc1 [Compound 105, ((2R,6R)-2,6-dimethylpiperazine-1,4-diyl)bis((4-methoxyphenyl)methanone)]	3.19 µM	–
COc1ccc(C(=O)N2C[C@@H](C)N(C(=O)/C=C/c3ccc(O)cc3)[C@H](C)C2)c(F)c1 [Compound 106, (E)-1-((2R,6R)-4-(2-fluoro-4-methoxybenzoyl)-2,6-dimethylpiperazin-1-yl)-3-(4-hydroxypheny)prop-2-en-1-one]	4.22 µM	–
COc1ccc(C(=O)N2[C@H](C)CN(C(=O)c3cnc(N)s3)C[C@H]2C)c(F)c1 [Compound 107, (2-aminothiazol-5-yl)((3R,5R)-4-(2-fluoro-4-methoxybenzoyl)-3,5-dimethylpiperazin-1-yl)methanone]	6.44 µM	–
COc1ccc(C(=O)N2[C@H](C)CN(C(=O)c3cc(OC)ccc3F)C[C@@H]2C)c(F)c1 [Compound 108, ((3S,5R)-4-(2-fluoro-4-methoxybenzoyl)-3,5-dimethylpiperazin-1-yl)(2-fluoro-5-methoxyphenyl)methanone]	–	> 66.7 µM
